Laboratory results taken from patent US8741944B2, “Anti-infective agents against intracellular pathogens” (priority 2007, dated 2014).
“Also recorded” adds a separate entry of the source. Like-named read-outs stand apart in the source and are kept apart here.

Columns and labels:
recombinant PDK-1 = recombinant PDK-1 (Homo sapiens (Human), UniProt O15530); test: PDK-1 kinase activity (PDK-1 kinase assay kit, cell-free); format: biochemical; settings: for IC50: inhibiting recombinant PDK-1 kinase activity
Experimental: PDK-1 kinase activity This in vitro assay was performed using a PDK-1 kinase assay kit (Upstate, Lake Placid, N.Y.) according to the vendor's instructions. This cell-free assay is based on the ability of recombinant PDK-1, in the presence of DMSO vehicle or the test agent, to activate its downstream kinase serum- and glucocorticoid-regulated kinase (SGK.) which, in turn, phosphorylates the Akt/SGK-specific peptide substrate RPRAATF with [γ-^32]-ATP. […] The reported values represent the means of two independent determinations.

PC-3 cells [1] = test: Cell viability analysis, MTT assay in PC-3 cells; format: cell-based, human
Experimental: Cell Culture PC-3 (p53−/−) human androgen-non-responsive prostate cancer cells were purchased from the American […] (Manassas, Va.). Cells were cultured in RPMI 1640 medium (Gibco, Grand Island, N.Y.) supplemented with 10% fetal bovine serum (FBS; Gibco) at 37° C. in a humidified incubator containing 5% CO2.
Controls received DMSO vehicle at a concentration equal to that in drug-treated cells. The medium was removed, replaced by 200 μl of 0.5 mg/ml of MTT in 10% FBS-containing RPMI-1640 medium, and cells were incubated in the CO2 incubator at 37° C. for 2 h. Supernatants were removed from the wells, and the reduced MTT dye was solubilized in 200 μL/well DMSO. Absorbance at 570 nm was determined on a plate reader.

Akt [2] = test: Immunoprecipitated Akt kinase assay after treatment of PC-3 cells (intracellular Akt activation); format: cell-based, human; settings: PC-3 cells treated for 2 h; read-out: IC50 for inhibiting intracellular Akt activation
Experimental: Immunoprecipitated Akt kinase assay Akt immunoprecipitation was carried out according to a modified, published procedure. PC-3 cells were treated with DMSO vehicle or the test agents at the indicated concentrations for 2 h and then lysed at 4° C. for 1 h in buffer A containing 50 mM Tris-HCl, pH 7.5, 1% Triton X-100, 1 mM EDTA, 1 mM EGTA, 50 mM sodium fluoride, 10 mM sodium β-glycerophosphate. 0.1% 2-mercaptoethanol, 0.1 mM phenylmethylsiilfonyl fluoride, and 1 μg/mL each of aprotinin, pepstatin, and leupeptin. Cell lysates were centrifuged at 10,000 g for 5 min, and the supernatant was treated with anti-Akt at 4° C. for 60 min., followed by protein G-agarose beads for additional 60 min. The immunoprecipitate was used to analyze Akt kinase activity by using the Akt/SGK-specific peptide substrate RPRAATF as described above. Values represented the means of two independent determinations.

Akt [3] = test: Direct inhibition of immunoprecipitated Akt kinase activity; format: biochemical, human
phospho-Akt = test: Western blot analysis of Akt and phospho-Akt in PC-3 cells; format: cell-based, human; settings: 5 μM and above
Experimental: Immunoblotting. The general procedure for the Western blot analysis of Akt and phospho-Akt is described as follows. Cells were washed in PBS, resuspended in SDS sample buffer sonicated by an ultrasonic sonicator for 5 see, and boiled for 5 min. After brief centrifugation, equivalent protein concentrations from the soluble fractions were resolved in 10% SDS-polyacrylamide gels on a Minigel apparatus, and transferred to a nitrocellulose membrane using a semi-dry transfer cell. The transblotted membrane was washed three times with TBS containing 0.05% Tween 20 (TBST). After blocking with TBST containing 5% nonfat milk for 60 min., the membrane was incubated with the primary antibody at 1:1,000 dilution in TBST-5% low fat milk at 4° C. for 12 h, and was then washed three times with TBST. The membrane was probed with goat anti-rabbit IgG-HRP conjugates (1:1,000) for 1 h at room temperature, and was washed with TBST three times. The immunoblots were visualized by enhanced chemiluminescence.

PC-3 cells [4] = test: Cell proliferation of PC-3 cells (Coulter counter, 10% FBS); format: cell-based, human; settings: 1 μM, 10% FBS-supplemented RPMI 1640 medium
Experimental: Cell Proliferation PC-3 cells were seeded into six-well plates at 50,000 cells/well in 10% FBS-containing RPMI 1640 medium. Following a 24 h attachment period, cells were treated in triplicate with the indicated concentration of compounds 1-36 or DMSO vehicle in 10% FBS-containing RPMI-1640 medium. At different time intervals, cells were harvested by trypsinization, and numerated using a Coulter counter model Z1 D/T (Beckman Coulter, Fullerton, Calif.).

S. typhimurium [5] = test: Intracellular survival (gentamicin protection) assay, S. typhimurium in RAW 264.7 murine macrophages; format: cell-based, Salmonella typhimurium
Experimental: The discovery that OSU-03012 induces autophagy in human cancer cells, coupled with the importance of autophagy as a defense against intracellular pathogens, prompted us to test the effect of this agent on the intracellular survival of S. typhimurium in infected RAW 264.7 murine macrophages. Both time- and dose-dependent effects of OSU-03012 were assessed in intracellular survival (i.e. gentamicin protection) assays. […] To determine if OSU-03012 had direct bactericidal activity, the effect of OSU-03012 on extracellular bacterial growth was examined in liquid medium (FIG. 3C) and on agar by the disc-diffusion method (not shown).

S. typhimurium [6] = test: Extracellular bacterial growth in liquid medium and on agar (disc-diffusion); format: cell-based, Salmonella typhimurium; settings: concentrations of up to 5 μM
F. novicida = format: cell-based; settings: RAW 264.7 cells, 1 μM for 24 h
autophagy = test: Autophagy induction; format: cell-based, human
From the text: OSU-03012 eliminates intracellular S. typhimurium by inducing autophagy in infected macrophages. […] Additional evidence for this mechanism of action comes from the human breast cancer cell lines, MCF-7 and MDA-MB-231, which differ in their expression levels of beclin-1, a tumor suppressor that is critical for the execution of autophagy (FIG. 5A). Accordingly, the ability of OSU-03012 to induce autophagy in these cell lines, as determined by the intensity of immunostaining for endogenous LC3, a marker of mammalian autophagosomes (FIG. 5C), correlates with their respective beclin-1 expression levels. Moreover, intracellular bacterial survival in OSU-03012-treated S. typhimurium-infected breast cancer cells also reflects their respective beclin-1 status (FIG. 5B). […] Moreover, OSU-03012 induces autophagy and bacterial clearance far more potently than rapamycin and at clinically attainable concentrations.

[7] = in vivo
[8] = inducing apoptotic death in PC-3 cells / PC-3 cell viability, read-out: IC50 PC-3

Sequence of recombinant PDK-1 (O15530 whole entry, looked up): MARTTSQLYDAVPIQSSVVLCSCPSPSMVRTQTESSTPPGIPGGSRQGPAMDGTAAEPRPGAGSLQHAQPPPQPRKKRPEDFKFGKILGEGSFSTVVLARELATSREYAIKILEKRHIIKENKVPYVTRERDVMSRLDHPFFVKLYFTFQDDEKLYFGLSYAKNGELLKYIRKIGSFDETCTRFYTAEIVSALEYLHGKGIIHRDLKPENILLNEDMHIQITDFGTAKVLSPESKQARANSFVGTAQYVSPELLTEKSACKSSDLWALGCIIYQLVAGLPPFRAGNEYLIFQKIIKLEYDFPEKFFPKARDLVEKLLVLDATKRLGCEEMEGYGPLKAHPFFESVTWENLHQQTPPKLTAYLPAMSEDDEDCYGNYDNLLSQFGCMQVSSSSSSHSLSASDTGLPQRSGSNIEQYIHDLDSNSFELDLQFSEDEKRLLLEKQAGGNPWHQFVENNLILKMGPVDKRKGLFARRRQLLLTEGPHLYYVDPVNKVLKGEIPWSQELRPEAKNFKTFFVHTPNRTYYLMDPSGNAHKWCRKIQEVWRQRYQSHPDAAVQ

Compound | IC50 (recombinant PDK-1) [µM] | IC50 (PC-3 cells [1]; [8]) [µM] | also measured
5-(2-Phenanthrenyl)-3-(trifluoromethyl)-4-(1H-tetrazol-5-ylmethylphenyl)-1H-pyrazole [Compound 69] | 45 | 27 | –
Cc1ccc(-c2cc(C(F)(F)F)nn2-c2ccc(S(N)(=O)=O)cc2)cc1 [Comparative Compound, 4-[5-(4-methylphenyl)-3-(trifluoromethyl)-1H-pyrazol-1-yl]benzenesulfonamide, reference compound] | – | – | IC50 (PC-3 cells [1]; Homo sapiens, PC-3, read-out: IC50 PC-3): 30 µM
4-[5-(4-(phenylmethyl)phenyl)-3-(trifluoromethyl)-1H-1-yl]benzenesulfonamide [Compound 56] | 15 | 8 | –
4-[5-(4′triflouromethyl[1,1′-biphenyl]-4-yl)-3-(trifluoromethyl)-1H-1-yl]benzenesulfonamide [Compound 51] | 18 | 8 | –
4-[5-(4′-tert-buty[1,1′-biphenyl]-4-yl)-3-(trifluoromethyl)-1H-1-yl]benzenesulfonamide [Compound 55] | 32 | 15 | –
4-[5-(2-phenanthrenyl)-3-(trifluoromethyl)-1H-1-yl]benzenesulfonamide [Compound 59] | – | 5 | improvement of IC50 values over 4-[5-(4-methylphenyl)-3-(trifluoromethyl)-1H-pyrazol-1-yl]benzenesulfonamide (recombinant PDK-1; PDK-1 activity and PC-3 cell viability): five- to six-fold; IC50 (PC-3 cells [1]; 24 h, 1% FBS-containing RPMI 1640 medium, read-out: dose required to induce 50% PC-3 cell death): 5 µM; IC50 (Akt [2]): 5 µM; direct inhibitory effect on immunoprecipitated Akt kinase activity (Akt [3]): Neither compound 59 nor other the other compounds displayed a direct inhibitory effect; Akt dephosphorylation (Western blot) (phospho-Akt): significant Akt dephosphorylation; anti-proliferative activity on PC-3 cell proliferation (PC-3 cells [4]): substantial anti-proliferative activity
4-[5-(4′-butyl[1,1′-biphenyl]-4-yl)-3-(trifluoromethyl)-1H-1-yl]benzenesulfonamide [Compound 54] | 32 | 15 | –
Cn1cnc(N)c2ncnc1-2 [Compound 3MA, 3-methyladenine] | – | – | effect on ability of OSU-03012 to reduce intracellular bacterial survival (S. typhimurium [5]; infected RAW 264.7 cells, 1 μM OSU-03012 for 8 h): completely blocked
4-[5-(9H-fluoren-2-yl)-3-(trifluoromethyl)-1H-1-yl]benzenesulfonamide [Compound 57] | 16 | – | –
CO[C@H]1C[C@@H]2CC[C@@H](C)[C@@](O)(O2)C(=O)C(=O)N2CCCC[C@H]2C(=O)O[C@H]([C@H](C)C[C@@H]2CC[C@@H](O)[C@H](OC)C2)CC(=O)[C@H](C)/C=C(\C)[C@@H](O)[C@@H](OC)C(=O)[C@H](C)C[C@H](C)/C=C/C=C/C=C/1C [rapamycin] | – | – | suppression of survival of S. typhimurium in murine macrophages (S. typhimurium [5]): capable of suppressing survival; fold higher concentration required to match bacterial clearance caused by OSU-03012 (S. typhimurium [5]; S. typhimurium in murine macrophages): ~100 fold
NCC(=O)Nc1ccc(-n2nc(C(F)(F)F)cc2-c2ccc3c(ccc4ccccc43)c2)cc1 [OSU-03012] | ~5 | – | concentration of maximal inhibition of intracellular bacterial survival (S. typhimurium [5]; S. typhimurium in RAW 264.7, 8 h of treatment): 1 µM; IC50 (S. typhimurium [5]; Salmonella enterica, RAW264.7, S. typhimurium in RAW 264.7, 8 h of treatment, read-out: IC50 of intracellular bacterial survival): ~0.2 µM; extracellular growth of S. typhimurium (S. typhimurium [6]): unaffected; intracellular survival of F. novicida (F. novicida): drastically reduced; also recorded: reduced intracellular survival; IC50 for autophagy induction (autophagy): sub-μM; oral bioavailability / pharmacokinetic properties [7]: orally bioavailable with favorable pharmacokinetic properties
5-(2-Phenanthrenyl)-3-(trifluoromethyl)-4-(1H-tetrazol-5-ylphenyl)-1H-pyrazole [Compound 64] | 52 | 32 | –
4-[5-(4′-methyl[1,1′-biphenyl]4-yl)-3-(trifluoromethyl)-1H-1-yl]benzenesulfonamide [Compound 50] | – | 8 | –
4-[5-(3′,5′-dimethyl[1,1;-biphenyl]-4-yl)-3-(trifluoromethyl)-1H-1-yl]benzenesulfonamide [Compound 53] | 17 | – | –
4-[5-4-biphenylyl)-3-(trifluoromethyl)-1H-pyrazol-1-yl]benzensulfonamide [Compound 45] | 21 | 11 | –
4-[5-(4′-bromomethyl[1,1′-biphenyl]-4-yl)-3-(trifluoromethyl)-1H-1-yl]benzenesulfonamide [Compound 52] | 20 | 11 | –
4-[5-(9-phenanthrenyl)-3-(trifluoromethyl)-1H-1-yl]benzenesulfonamide [Compound 60] | 42 | 23 | –
